Laboratory results reported in the CheMixHub ionic liquid set.

Test: xn = mol fraction of the nth substance listed

CCCCCCCCCCCC[N+](C)(C)Cc1ccccc1.[Cl-] + CC(C)C[C@H](N)C(=O)O + O
electrical conductivity [S/m], 101 kPa
Settings	293.15 K	298.15 K	303.15 K	308.15 K	313.15 K
x2 = 0.001798, x1 = 0.0001441	0.0541	0.0606	0.0671	0.074	0.0811
x2 = 0.001798, x1 = 0.0001691	0.061	0.068	0.0755	0.0833	0.0918
x2 = 0.001798, x1 = 0.0001949	0.0661	0.0738	0.0821	0.0911	0.101
x2 = 0.001798, x1 = 0.0002208	0.0704	0.0788	0.0879	0.0977	0.108
x2 = 0.001798, x1 = 0.0002443	0.0741	0.0832	0.0928	0.103	0.116
x2 = 0.001798, x1 = 0.0002664	0.0776	0.0872	0.0975	0.109	0.122
x2 = 0.001798, x1 = 0.0002864	0.0807	0.0908	0.102	0.114	0.127
x2 = 0.001798, x1 = 0.0003052	0.0838	0.0941	0.106	0.118	0.132
x2 = 0.001798, x1 = 0.0003239	0.0872	0.0976	0.11	0.123	0.137
x2 = 0.001799, x1 = 5.649e-05	0.0231	0.0258	0.0287	0.0317	0.0346
x2 = 0.001799, x1 = 7.89e-05	0.0314	0.035	0.0389	0.0428	0.0469
x2 = 0.001799, x1 = 9.986e-05	0.0387	0.0435	0.0482	0.0532	0.0582
x2 = 0.001799, x1 = 0.0001206	0.0462	0.0518	0.0574	0.0633	0.0693
x2 = 0.008927, x1 = 0.0002331	0.0722	0.0806	0.0896	0.0994	0.11
x2 = 0.008927, x1 = 0.0002565	0.0758	0.0847	0.0944	0.105	0.117
x2 = 0.008927, x1 = 0.0002782	0.079	0.0883	0.0986	0.11	0.122
x2 = 0.008927, x1 = 0.0002981	0.0818	0.0918	0.102	0.115	0.127
x2 = 0.008927, x1 = 0.0003168	0.0845	0.0949	0.106	0.119	0.132
x2 = 0.008927, x1 = 0.0003371	0.0874	0.0983	0.11	0.123	0.137
x2 = 0.008928, x1 = 0.0001252	0.0463	0.0518	0.0574	0.0633	0.0692
x2 = 0.008928, x1 = 0.0001513	0.0552	0.0616	0.0682	0.075	0.082
x2 = 0.008928, x1 = 0.000179	0.0627	0.0698	0.0773	0.0853	0.0937
x2 = 0.008928, x1 = 0.000207	0.068	0.0757	0.084	0.093	0.103
x2 = 0.008929, x1 = 5.804e-05	0.0225	0.0252	0.028	0.031	0.0339
x2 = 0.008929, x1 = 7.973e-05	0.0302	0.0339	0.0376	0.0414	0.0454
x2 = 0.008929, x1 = 0.0001014	0.038	0.0425	0.0472	0.0519	0.0568

CCCCCCCCCCCC[N+](C)(C)Cc1ccccc1.[Cl-] + CC(C)C[C@H](NC(=O)CN)C(=O)O + O
electrical conductivity [S/m], 101 kPa
Settings	293.15 K	298.15 K	303.15 K	308.15 K	313.15 K
x2 = 0.0008999, x1 = 0.0002654	0.0792	0.0889	0.0993	0.11	0.123
x2 = 0.0008999, x1 = 0.0002843	0.0824	0.0926	0.104	0.116	0.129
x2 = 0.0008999, x1 = 0.0003023	0.0854	0.096	0.107	0.12	0.134
x2 = 0.0008999, x1 = 0.0003252	0.0892	0.101	0.113	0.126	0.14
x2 = 0.0009, x1 = 0.0001699	0.0609	0.068	0.0754	0.0833	0.0918
x2 = 0.0009, x1 = 0.000197	0.0669	0.0747	0.083	0.0919	0.102
x2 = 0.0009, x1 = 0.000222	0.0716	0.0801	0.0893	0.0991	0.11
x2 = 0.0009, x1 = 0.0002447	0.0757	0.0848	0.0946	0.105	0.117
x2 = 0.0009001, x1 = 5.034e-05	0.0218	0.0243	0.0272	0.0302	0.0333
x2 = 0.0009001, x1 = 7.251e-05	0.03	0.0335	0.0373	0.0412	0.0454
x2 = 0.0009001, x1 = 9.522e-05	0.038	0.0425	0.0473	0.0521	0.0573
x2 = 0.0009001, x1 = 0.0001178	0.0458	0.0511	0.0567	0.0625	0.0687
x2 = 0.0009001, x1 = 0.0001434	0.0539	0.0601	0.0666	0.0734	0.0808
x2 = 0.001793, x1 = 4.141e-05	0.0191	0.0215	0.0243	0.0271	0.0301
x2 = 0.001793, x1 = 6.45e-05	0.0271	0.0306	0.0342	0.038	0.0421
x2 = 0.001793, x1 = 8.905e-05	0.0354	0.0397	0.0444	0.0491	0.0542
x2 = 0.001793, x1 = 0.0001112	0.0424	0.0477	0.0531	0.0587	0.0648
x2 = 0.001793, x1 = 0.0001367	0.05	0.056	0.0624	0.069	0.0761
x2 = 0.001793, x1 = 0.0001631	0.0569	0.0637	0.0707	0.0787	0.0879
x2 = 0.001793, x1 = 0.0001904	0.0632	0.0708	0.0791	0.0877	0.0969
x2 = 0.001793, x1 = 0.0002156	0.0683	0.0767	0.0859	0.0955	0.106
x2 = 0.001793, x1 = 0.0002389	0.0727	0.0819	0.0918	0.102	0.114
x2 = 0.001793, x1 = 0.00026	0.0766	0.0863	0.0969	0.108	0.121
x2 = 0.001793, x1 = 0.0002803	0.0802	0.0905	0.102	0.114	0.127
x2 = 0.001793, x1 = 0.0003015	0.0838	0.0947	0.107	0.12	0.133
x2 = 0.001793, x1 = 0.0003211	0.0872	0.0986	0.112	0.125	0.139

CCCC[N+](CCCC)(CCCC)CCCC.[Cl-] + CC(C)[C@H](N)C(=O)O
100 kPa
Settings	electrical conductivity, 313.15 K [S/m]	electrical conductivity, 323.15 K [S/m]	electrical conductivity, 333.15 K [S/m]	electrical conductivity, 343.15 K [S/m]	electrical conductivity, 353.15 K [S/m]	viscosity, 313.15 K [mPa·s]	viscosity, 323.15 K [mPa·s]	viscosity, 333.15 K [mPa·s]	viscosity, 343.15 K [mPa·s]	viscosity, 353.15 K [mPa·s]
x1 = 0.9	0.041	0.059	0.082	0.0989	0.123	800	460	258	145	82
x1 = 0.9091	0.029	0.041	0.055	0.0751	0.095	900	510	256	146	82
x1 = 0.9167	0.038	0.05	0.07	0.0901	0.116	587	313	196	105	63

CCCCCCCCCCCC[N+](C)(C)Cc1ccccc1.[Cl-] + CC(C)[C@H](N)C(=O)O + O
electrical conductivity [S/m], 101 kPa
Settings	293.15 K	298.15 K	303.15 K	308.15 K	313.15 K
x2 = 0.0008891, x1 = 0.0003	0.0839	0.0943	0.106	0.118	0.132
x2 = 0.0008891, x1 = 0.000319	0.087	0.0977	0.11	0.123	0.137
x2 = 0.0008892, x1 = 0.0001722	0.0627	0.0699	0.0776	0.0856	0.0943
x2 = 0.0008892, x1 = 0.0001982	0.0677	0.0756	0.0841	0.0932	0.103
x2 = 0.0008892, x1 = 0.000222	0.0717	0.0802	0.0894	0.0993	0.11
x2 = 0.0008892, x1 = 0.0002429	0.0751	0.0841	0.0939	0.104	0.116
x2 = 0.0008892, x1 = 0.0002636	0.0783	0.0878	0.0982	0.109	0.122
x2 = 0.0008892, x1 = 0.0002822	0.0812	0.0912	0.102	0.114	0.127
x2 = 0.0008893, x1 = 7.858e-05	0.0307	0.0345	0.0383	0.0422	0.046
x2 = 0.0008893, x1 = 9.958e-05	0.0385	0.0432	0.0479	0.0528	0.0577
x2 = 0.0008893, x1 = 0.0001218	0.0467	0.0524	0.058	0.064	0.0701
x2 = 0.0008893, x1 = 0.0001461	0.0553	0.0619	0.0686	0.0756	0.0827
x2 = 0.0008894, x1 = 5.704e-05	0.0227	0.0255	0.0283	0.0312	0.034
x2 = 0.001757, x1 = 5.785e-05	0.0228	0.0256	0.0285	0.0315	0.0345
x2 = 0.001757, x1 = 7.859e-05	0.0304	0.0341	0.0379	0.0418	0.0458
x2 = 0.001757, x1 = 0.0001001	0.0382	0.0428	0.0475	0.0528	0.0574
x2 = 0.001757, x1 = 0.000121	0.0457	0.0512	0.0568	0.0628	0.0689
x2 = 0.001757, x1 = 0.0001443	0.0537	0.0601	0.0666	0.0735	0.0809
x2 = 0.001757, x1 = 0.0001688	0.0607	0.0676	0.075	0.0828	0.0914
x2 = 0.001757, x1 = 0.0001945	0.0657	0.0733	0.0815	0.0905	0.1
x2 = 0.001757, x1 = 0.0002205	0.07	0.0783	0.0872	0.0971	0.108
x2 = 0.001757, x1 = 0.0002437	0.0737	0.0826	0.0919	0.103	0.114
x2 = 0.001757, x1 = 0.0002647	0.0773	0.0864	0.0965	0.108	0.12
x2 = 0.001757, x1 = 0.0002841	0.0803	0.09	0.101	0.112	0.126
x2 = 0.001757, x1 = 0.0003021	0.0834	0.0937	0.105	0.117	0.13
x2 = 0.001757, x1 = 0.0003234	0.0872	0.0978	0.11	0.122	0.136
